# Results from patent US20110206647A1, “Modulation of Angiogenesis” (ABT Holding Company, priority 2010, published 2011).
# Assays:
# [1] = tested on: human umbilical vein endothelial cell (HUVEC); experiment: in vitro HUVEC angiogenesis (tube formation) assay; type: cell-based; details: for induction of angiogenesis by factor added to basal media: MultiStem basal media, IL-8 4000 pg/ml, CXCL5 150 pg/ml
# Procedure: Growth factor-reduced Matrigel (BD Bioscience, San Jose, Calif.) was thawed on ice at 4° C. overnight and used at a concentration of 6.0-6.5 mg/ml, diluted on ice using ice-cold 1×PBS. Four-hundred microliters of Matrigel was distributed into the inner wells of a 24-well tissue culture plate and allowed to solidify for 1 hour at 37° C. Addition of Matrigel was done on ice and outer wells of plate were filled with 1 ml of 1×PBS.
# HUVECs were harvested according to the following protocol: Cells were washed with 1×PBS followed by a brief rinse with 0.25× trypsin-EDTA and then quenched using the 1×PBS (with residual serum) wash. Cells were resuspended in endothelial cell basal media (EBM) and counted. HUVECs were added to the CM, other experimental conditions and controls at a concentration of 55,000 cells/ml/well. Each sample and control was assayed in triplicate. Plates were incubated for 6 hours or 18 hours at 5% CO2 and 37° C. to allow for tube formation. Four fields per well were analyzed for a total of 12 fields. Pictures were taken at using 10× objective. Angiogenesis was scored by counting the number of tubes formed between cells. Results are expressed as average tubes formed per field +/−SEM.
# To test whether MultiStem secretes factors which promote angiogenesis, an in vitro angiogenesis assay using conditioned media from MultiStem was utilized. MultiStem were plated under normal conditions for 24 hours. The cells were then transferred to serum-free conditions to generate conditioned media for four days. This media was then tested for angiogenic activity in an in vitro tube formation assay. […] HUVECs were plated in conditioned media, basal media or endothelial growth media for 18 hours. Angiogenesis was measured as the average number of tubes formed per field of view for each condition. In the absence of any additional factors, the presence of serum alone in basal media can induce angiogenesis. Therefore, serum-free media was used for all the experiments.
# [2] = tested on: MultiStem; experiment: RT-PCR analysis of pro-angiogenic gene expression in treated MultiStem; type: cell-based, human
# Procedure: FIG. 7—Treatment of MultiStem with Cytomix increases the expression of pro-angiogenic molecules in vitro. MultiStem was grown for three days and then treated with Cytomix (10 ng/mL TNF-α, IL-1β and IFNγ) for 24, 48, 72 hrs. The cells were subsequently collected for RT-PCR analysis for pro-angiogenic gene expression.
# FIGS. 10A-C—Pre-treatment of MultiStem with prostaglandin F or latanoprost (prostaglandin F agonist) increases expression of the angiogenic factors by MultiStem in vitro. […] MultiStem was treated with a dose range of Latanoprost for 24, 48 or 72 hours. Gene expression of pro-angiogenic factors was then analyzed by RT-PCR. Gene expression of KITLG (A), HGF and VEGF (B), and Il-8 (C) were all increased.
# [3] = MultiStem treated 24, 48, 72 hrs
# [4] = MultiStem treated 24, 48 or 72 hours
compound,measurement,setting,value
CC(C)OC(=O)CCC/C=C\C[C@@H]1[C@@H](CC[C@@H](O)CCc2ccccc2)[C@H](O)C[C@@H]1O [latanoprost],"angiogenesis, CM from untreated cells with agent added after collection vs CM alone",[1]; 1 uM added to media after collection,equal levels
same,"tube formation, basal media with added agent","[1]; 1 uM in basal media, no cells",did no induce significant tube formation
same,"HUVEC tube formation, conditioned media from treated MultiStem vs untreated","[1]; MultiStem cultured three days with 1 uM, serum-free CM",increased modestly
same,HGF gene expression,[2]; [3],increased
same,IL-8 gene expression,[2]; [3],increased
same,VEGF (VEGF A) gene expression,[2]; [4],increased
same,KITLG gene expression,"[2]; MultiStem treated 24, 48 or 72 hours, dose range",increased
CXCL5: angiogenic cytokine added to MultiStem basal media (150 pg/ml),induction of angiogenesis by factor added to basal media,[1],not sufficient to induce angiogenesis
IL-8: interleukin 8 added to MultiStem basal media (4000 pg/ml),induction of angiogenesis by factor added to basal media,[1],not sufficient to induce angiogenesis
prostaglandin F,VEGF (VEGF A) gene expression,[2]; [4],increased
